For the test, the system named is P388 leukemia ip, CD2F1 mice, survival T/C. Briefly: NCI In Vivo Anticancer Drug Screen. Data for tumor model P388 Leukemia (intraperitoneal) in CD2F1 (CDF1) mice. The settings on record: endpoint: median survival time, higher = longer survival. In a few lines: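 Mice carrying the transplanted tumor received test compound or vehicle. Survival was recorded in each group, and the value is the treated-group measurement divided by that of the vehicle-treated control group.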

Setting [1] is: dose: 100.0 mg/kg/injection, schedule: Q01DX001 (ip), vehicle: saline with Tween-80.
Where [2] appears, read: dose: 200.0 mg/kg/injection, schedule: Q01DX001 (ip), vehicle: saline with Tween-80.
Where [3] appears, read: dose: 400.0 mg/kg/injection, schedule: Q01DX001 (ip), vehicle: saline with Tween-80.
[4] abbreviates: dose: 100.0 mg/kg/injection, schedule: Q04DX003 (ip), vehicle: saline with Tween-80.
[5] abbreviates: dose: 60.0 mg/kg/injection, schedule: Q01DX005 (ip), vehicle: saline with Tween-80.
Setting [6] is: dose: 120.0 mg/kg/injection, schedule: Q01DX005 (ip), vehicle: saline with Tween-80.
Setting [7] is: dose: 240.0 mg/kg/injection, schedule: Q01DX005 (ip), vehicle: saline with Tween-80.
The mark [8] stands for this setting: dose: 50.0 mg/kg/injection, schedule: Q01DX005 (ip), vehicle: saline with Tween-80.
Where [9] appears, read: dose: 100.0 mg/kg/injection, schedule: Q01DX005 (ip), vehicle: saline with Tween-80.
Setting [10] is: dose: 200.0 mg/kg/injection, schedule: Q01DX005 (ip), vehicle: saline with Tween-80.
[11] abbreviates: dose: 25.0 mg/kg/injection, schedule: Q01DX005 (ip), vehicle: Klucel (hydroxypropylcellulose) (HPC).
[12] abbreviates: dose: 50.0 mg/kg/injection, schedule: Q01DX005 (ip), vehicle: Klucel (hydroxypropylcellulose) (HPC).
The mark [13] stands for this setting: dose: 100.0 mg/kg/injection, schedule: Q01DX005 (ip), vehicle: Klucel (hydroxypropylcellulose) (HPC).
Where [14] appears, read: dose: 200.0 mg/kg/injection, schedule: Q01DX005 (ip), vehicle: Klucel (hydroxypropylcellulose) (HPC).

The structures appear in SMILES notation. “And” between values parts separate entries of the source, which are not always exact repeats. Equal entries are not always repeated. Toxic doses and inconclusive results are not listed.

Consider `CCCC[As](CCCC)SC1OC(C2COC(C)(C)O2)C2OC(C)(C)OC12` (configuration not stated), for which the T/C is, setting by setting: (dose: 0.78 mg/kg/injection, schedule: Q01DX009 (ip), vehicle: water) 101 % of control; (dose: 1.56 mg/kg/injection, schedule: Q01DX009 (ip), vehicle: water) 117 % of control; (dose: 3.13 mg/kg/injection, schedule: Q01DX009 (ip), vehicle: distilled water + Tween-80) 122 % of control; (dose: 3.13 mg/kg/injection, schedule: Q01DX009 (ip), vehicle: water) 101 % of control; (dose: 6.25 mg/kg/injection, schedule: Q01DX009 (ip), vehicle: distilled water + Tween-80) 96 % of control; (dose: 6.25 mg/kg/injection, schedule: Q01DX009 (ip), vehicle: water) 111 % of control. Also, the T/C is 123 % of control (dose: 12.5 mg/kg/injection, schedule: Q01DX009 (ip), vehicle: distilled water + Tween-80) and 88 % of control (dose: 25.0 mg/kg/injection, schedule: Q01DX009 (ip), vehicle: distilled water + Tween-80).
For the compound `Cc1ccc(S(=O)(=O)NNC(=O)CCC(=O)NS(C)(=O)=O)cc1`, the T/C is 100 % of control under setting [1], 97 % of control under setting [2] and 93 % of control under setting [3].
As for `CCOC(=O)C1=C(C)NC(=O)NC1c1ccc(C)cc1` (configuration not stated), the T/C is, setting by setting: under setting [4], 100 % of control; (dose: 200.0 mg/kg/injection, schedule: Q04DX003 (ip), vehicle: saline with Tween-80) 95 % of control; (dose: 400.0 mg/kg/injection, schedule: Q04DX003 (ip), vehicle: saline with Tween-80) 100 % of control.
Take `OCCCCc1ccccc1`: the T/C under setting [1] is 104 % of control, the T/C under setting [2] is 100 % of control and the T/C under setting [3] was 100 % of control.
In the case of `C/C(CCl)=N/NC1=NC(c2ccccc2Cl)P(=O)(NCCCNP2(=O)SC(N/N=C(/C)CCl)=NC2c2ccccc2Cl)S1` (configuration not stated), the T/C under setting [5] is 99 % of control, the T/C under setting [6] was 98 % of control and the T/C under setting [7] was 93 % of control.
For the compound `CC1=CC(O)C(O)C2(C)C1CC1OC(=O)C(OC(=O)CC(C)C)C3C(C)C(O)C4(O)OCC13C42` (configuration not stated) (tested in a mixture with another compound), the T/C was 104 % of control (dose: 125.0 micrograms/kg/injection, schedule: Q01DX009 (ip), vehicle: other); 102 % of control (dose: 250.0 micrograms/kg/injection, schedule: Q01DX009 (ip), vehicle: other); 103 % of control (dose: 500.0 micrograms/kg/injection, schedule: Q01DX009 (ip), vehicle: other); 108 % of control (dose: 1000.0 micrograms/kg/injection, schedule: Q01DX009 (ip), vehicle: other).
Regarding `CC(C)(C)c1ccc(OCc2cnc[nH]2)cc1`, the T/C reads like this: (dose: 25.0 mg/kg/injection, schedule: Q01DX001 (ip), vehicle: saline) 102 % of control; (dose: 50.0 mg/kg/injection, schedule: Q01DX001 (ip), vehicle: saline) 101 % of control; (dose: 100.0 mg/kg/injection, schedule: Q01DX001 (ip), vehicle: saline) 110 % of control.
Take `CC(=O)c1ccc(N=C(C#N)C2=C(O)c3ccccc3C2=O)cc1`: the T/C was 115 % of control under setting [5] and 120 % of control under setting [6].
For `COc1cc(Cc2nccc3cc(OC)c(OC)cc23)c(C(C)=O)cc1OC`, the T/C is 123 % of control (dose: 3.13 mg/kg/injection, schedule: Q01DX009 (ip), vehicle: saline sonified); 105 % of control (dose: 12.5 mg/kg/injection, schedule: Q01DX009 (ip), vehicle: Klucel (hydroxypropylcellulose) (HPC)); 161 % of control (dose: 12.5 mg/kg/injection, schedule: Q01DX009 (ip), vehicle: saline sonified); 106 % of control (dose: 25.0 mg/kg/injection, schedule: Q01DX009 (ip), vehicle: Klucel (hydroxypropylcellulose) (HPC)); 113 % of control (dose: 50.0 mg/kg/injection, schedule: Q01DX009 (ip), vehicle: Klucel (hydroxypropylcellulose) (HPC)); 100 % of control under setting [4].
As for `COC(=O)C1C2C=CC(C1C(=O)OC)C1C3C(=O)N(N)C(=O)C3C21` (configuration not stated), the T/C is, setting by setting: under setting [8], 100 % of control; under setting [9], 96 % of control; under setting [10], 91 % of control.
For the compound `CCCCCCCCC(C(=O)N/N=C(\C)c1ccccc1)C(=O)N/N=C(\C)c1ccccc1`, the T/C runs as follows: (dose: 50.0 mg/kg/injection, schedule: Q01DX009 (ip), vehicle: saline) 101 % of control; (dose: 100.0 mg/kg/injection, schedule: Q01DX009 (ip), vehicle: saline) 105 % of control; (dose: 200.0 mg/kg/injection, schedule: Q01DX009 (ip), vehicle: saline) 100 % of control.
As for `O=C1CSC(C2CCCCC2)N1c1nncs1` (configuration not stated), the T/C was 100 % of control (dose: 30.0 mg/kg/injection, schedule: Q01DX005 (ip), vehicle: Klucel (hydroxypropylcellulose) (HPC)); 100 % of control (dose: 60.0 mg/kg/injection, schedule: Q01DX005 (ip), vehicle: Klucel (hydroxypropylcellulose) (HPC)); 101 % of control (dose: 120.0 mg/kg/injection, schedule: Q01DX005 (ip), vehicle: Klucel (hydroxypropylcellulose) (HPC)); 107 % of control (dose: 240.0 mg/kg/injection, schedule: Q01DX005 (ip), vehicle: Klucel (hydroxypropylcellulose) (HPC)).
As to `CCCCN(c1ccc(Br)cc1)c1nc(N)nc(N)c1N=O`, the T/C by setting is: under setting [11], 103 % of control; under setting [12], 99 % of control; under setting [13], 102 % of control; under setting [14], 98 % of control.
With `O=C1Nc2ncnn2C1=O`, the T/C is, setting by setting: (dose: 50.0 mg/kg/injection, schedule: Q01DX009 (ip), vehicle: saline with Tween-80) 108 % of control; (dose: 100.0 mg/kg/injection, schedule: Q01DX009 (ip), vehicle: saline with Tween-80) 111 % of control; (dose: 200.0 mg/kg/injection, schedule: Q01DX009 (ip), vehicle: saline with Tween-80) 99 % of control; (dose: 400.0 mg/kg/injection, schedule: Q01DX009 (ip), vehicle: saline with Tween-80) 96 % of control.
Consider `CCc1nc(N)nc(N)c1-c1ccc(N)cc1`, for which the T/C runs as follows: (dose: 12.5 mg/kg/injection, schedule: Q01DX005 (ip), vehicle: saline with Tween-80) 104 % of control; (dose: 25.0 mg/kg/injection, schedule: Q01DX005 (ip), vehicle: saline with Tween-80) 100 % of control; under setting [8], 98 % of control and 99 % of control.
Turning to `O=C1c2cccc3cccc(c23)C(=O)N1CC1CCCO1` (configuration not stated), the T/C is, setting by setting: under setting [8], 99 % of control; under setting [9], 101 % of control; under setting [10], 94 % of control.
Consider `CC(C)CCCC(C)Cc1cc(CC(C)CCCC(C)C)n(C)n1` (configuration not stated), for which the T/C was 108 % of control and 109 % of control and 97 % of control under setting [11]; 102 % of control and 109 % of control and 96 % of control under setting [12]; 101 % of control and 105 % of control and 111 % of control under setting [13]; 108 % of control and 121 % of control and 96 % of control under setting [14]; 100 % of control (dose: 400.0 mg/kg/injection, schedule: Q01DX005 (ip), vehicle: Klucel (hydroxypropylcellulose) (HPC)).
On to `COC(=O)CCC(=O)CN1C(=O)c2ccccc2C1=O`, for which the T/C was 106 % of control under setting [5], 111 % of control under setting [6] and 111 % of control under setting [7].
`CCOC(=O)C1CCC(=O)C(CC)=C1C` (configuration not stated): the T/C was 103 % of control under setting [8], 103 % of control under setting [9] and 107 % of control under setting [10].
Take `CN(C)c1ccc(C2=CC(c3ccc(N(C)C)cc3)(c3ccc(C(F)(F)F)cc3)C=C(c3ccc(N(C)C)cc3)S2)cc1`: the T/C is, setting by setting: (dose: 100.0 mg/kg/injection, schedule: Q01DX001 (ip), vehicle: Klucel (hydroxypropylcellulose) (HPC)) 101 % of control; (dose: 200.0 mg/kg/injection, schedule: Q01DX001 (ip), vehicle: Klucel (hydroxypropylcellulose) (HPC)) 92 % of control.

Source of the values: PubChem BioAssay AID330 (DTP/NCI, 2004).
